From ChEMBL document CHEMBL1143950, “Antifungal and cytotoxic activities of some N-substituted aniline derivatives bearing a hetaryl fragment” (Bioorg Med Chem, 2008) come the findings set out here.

In brackets after ≈: the same amount, converted by molar mass.

What all share (assay type): functional
For one test, the system named is Candida albicans. Put plainly: Antifungal activity against Candida albicans ATCC 10231 by micro-broth dilution method. For orientation: In broth dilution the organism is exposed to a series of concentrations in liquid medium.
A further test has as its system Candida tropicalis. Put plainly: Antifungal activity against Candida tropicalis C131 by micro-broth dilution method.
A further test has as its system Saccharomyces cerevisiae. Put plainly: Antifungal activity against Saccharomyces cerevisiae ATCC 9763 by microbroth dilution method.
The subject of the next test is Cryptococcus neoformans. Put plainly: Antifungal activity against Cryptococcus neoformans ATCC 32264 by microbroth dilution method.
The test system of another test is Aspergillus fumigatus. In words: Antifungal activity against Aspergillus fumigatus ATCC 26934 by micro-broth dilution method.
The next test relates to Aspergillus flavus. In words: Antifungal activity against Aspergillus flavus ATCC 9170 by micro-broth dilution method.
For a further test, the system named is Trichophyton rubrum. Put plainly: Antifungal activity against Trichophyton rubrum C113 by microbroth dilution method.
The test system of another test is Aspergillus niger. Put plainly: Antifungal activity against Aspergillus niger ATCC 9029 by micro-broth dilution method.
The subject of the next test is Nannizzia gypsea. In words: Antifungal activity against Microsporum gypseum C115 by microbroth dilution method.
Test [1] concerns Trichophyton mentagrophytes. Put plainly: Antifungal activity against Trichophyton mentagrophytes ATCC 9972 by micro-broth dilution method.

On to `C=CCC(Nc1ccccc1)c1ccncc1` (stereo not given), for which the MIC (usually the lowest concentration found to suppress growth) against Candida albicans was 250 µg/mL (≈ 1110 µM); against Candida tropicalis it was 250 µg/mL (≈ 1110 µM); in the test on Saccharomyces cerevisiae, 125 µg/mL (≈ 557 µM); in the test with Cryptococcus neoformans, 250 µg/mL (≈ 1110 µM); in the test on Aspergillus fumigatus, 250 µg/mL (≈ 1110 µM); in the test on Aspergillus flavus it was 250 µg/mL (≈ 1110 µM). The MIC against Trichophyton rubrum was 250 µg/mL (≈ 1110 µM); in the test with Aspergillus niger it was 250 µg/mL (≈ 1110 µM); with Nannizzia gypsea it was 125 µg/mL (≈ 557 µM); in test [1] it was 62.5 µg/mL (≈ 279 µM).

Regarding `C=CCC(Nc1ccc(Cl)cc1)c1cccn1C` (stereo not given), the MIC with Candida albicans, with Candida tropicalis, with Saccharomyces cerevisiae, against Cryptococcus neoformans, against Aspergillus fumigatus and in the test on Aspergillus flavus was over 250 µg/mL throughout. For the same compound, the MIC in the test on Trichophyton rubrum is 250 µg/mL (≈ 959 µM); with Aspergillus niger, over 250 µg/mL; against Nannizzia gypsea, over 250 µg/mL; in test [1], 250 µg/mL (≈ 959 µM).

In the case of `Cn1cccc1C(C#N)Nc1ccccc1` (stereo not given), the MIC against Candida albicans, in the test with Candida tropicalis, in the test with Saccharomyces cerevisiae, with Cryptococcus neoformans, against Aspergillus fumigatus and with Aspergillus flavus was over 250 µg/mL each time. Also, the MIC was 250 µg/mL (≈ 1180 µM) in the test on Trichophyton rubrum, over 250 µg/mL against Aspergillus niger, 250 µg/mL (≈ 1180 µM) with Nannizzia gypsea and 250 µg/mL (≈ 1180 µM) in [1].

Regarding `C=CCC(Nc1ccc(C)cc1)c1cccs1` (stereo not given), the MIC in the test on Candida albicans, with Candida tropicalis, against Saccharomyces cerevisiae, against Cryptococcus neoformans, in the test on Aspergillus fumigatus and against Aspergillus flavus was over 250 µg/mL in each case. Moreover, the MIC in the test with Trichophyton rubrum is 12.5 µg/mL (≈ 51.4 µM); in the test with Aspergillus niger, over 250 µg/mL; with Nannizzia gypsea it was 50 µg/mL (≈ 205 µM); in test [1], 6.25 µg/mL (≈ 25.7 µM).

As for `C=CCC(Nc1ccc(Cl)cc1)c1ccsc1` (stereo not given), the MIC with Candida albicans was over 250 µg/mL; against Candida tropicalis it was over 250 µg/mL; with Saccharomyces cerevisiae it was over 250 µg/mL; against Cryptococcus neoformans it was 250 µg/mL (≈ 948 µM); against Aspergillus fumigatus, over 250 µg/mL; in the test on Aspergillus flavus, over 250 µg/mL. Besides, the MIC (against Trichophyton rubrum; in the test with Aspergillus niger; against Nannizzia gypsea; in test [1]) was over 250 µg/mL in each case.

Regarding `Cc1ccc(NC(C#N)c2ccsc2)cc1` (stereo not given), the MIC in the test with Candida albicans is over 250 µg/mL; against Candida tropicalis it was over 250 µg/mL; against Saccharomyces cerevisiae, over 250 µg/mL; in the test on Cryptococcus neoformans it was 125 µg/mL (≈ 547 µM); with Aspergillus fumigatus, over 250 µg/mL; in the test with Aspergillus flavus, over 250 µg/mL. The MIC with Trichophyton rubrum was 125 µg/mL (≈ 547 µM); in the test with Aspergillus niger, over 250 µg/mL; against Nannizzia gypsea it was 250 µg/mL (≈ 1090 µM); in test [1], 125 µg/mL (≈ 547 µM).

In the case of `N#CC(Nc1ccccc1)c1ccco1` (stereo not given), the MIC in the test with Candida albicans, against Candida tropicalis, in the test with Saccharomyces cerevisiae, in the test on Cryptococcus neoformans, with Aspergillus fumigatus and in the test with Aspergillus flavus was over 250 µg/mL each time. Moreover, the MIC against Trichophyton rubrum is 250 µg/mL (≈ 1260 µM); against Aspergillus niger it was over 250 µg/mL; in the test on Nannizzia gypsea it was over 250 µg/mL; in [1] it was 250 µg/mL (≈ 1260 µM).

Consider `N#CC(Nc1ccc(Cl)cc1)c1ccsc1` (stereo not given), for which the minimum inhibitory concentration (MIC) against Candida albicans, against Candida tropicalis, against Saccharomyces cerevisiae, in the test with Cryptococcus neoformans, against Aspergillus fumigatus and in the test with Aspergillus flavus was over 250 µg/mL in each case. In addition, the MIC was 125 µg/mL (≈ 503 µM) with Trichophyton rubrum, over 250 µg/mL against Aspergillus niger, 250 µg/mL (≈ 1010 µM) in the test with Nannizzia gypsea and 125 µg/mL (≈ 503 µM) in test [1].

As for `N#CC(Nc1ccccc1)c1ccsc1` (stereo not given), the MIC in the test on Candida albicans, in the test on Candida tropicalis, in the test on Saccharomyces cerevisiae, in the test on Cryptococcus neoformans, against Aspergillus fumigatus and against Aspergillus flavus was over 250 µg/mL each time. Moreover, the MIC is 250 µg/mL (≈ 1170 µM) with Trichophyton rubrum, over 250 µg/mL in the test with Aspergillus niger, over 250 µg/mL against Nannizzia gypsea and 250 µg/mL (≈ 1170 µM) in test [1].

For the compound `C=CCC(Nc1cc(C)cc(C)c1)c1ccncc1` (stereo not given), the MIC against Candida albicans was 250 µg/mL (≈ 991 µM); in the test with Candida tropicalis, 250 µg/mL (≈ 991 µM); in the test with Saccharomyces cerevisiae it was 250 µg/mL (≈ 991 µM); in the test with Cryptococcus neoformans, over 250 µg/mL; against Aspergillus fumigatus, over 250 µg/mL; in the test on Aspergillus flavus it was over 250 µg/mL. Further, the MIC was 250 µg/mL (≈ 991 µM) against Trichophyton rubrum, over 250 µg/mL against Aspergillus niger, 125 µg/mL (≈ 495 µM) in the test on Nannizzia gypsea and 125 µg/mL (≈ 495 µM) in test [1].

With `N#CC(Nc1ccccc1)c1cccs1` (stereo not given), the MIC in the test on Candida albicans, in the test with Candida tropicalis, with Saccharomyces cerevisiae, against Cryptococcus neoformans, against Aspergillus fumigatus and against Aspergillus flavus was over 250 µg/mL each time. For the same compound, the MIC with Trichophyton rubrum is 250 µg/mL (≈ 1170 µM); in the test with Aspergillus niger, over 250 µg/mL; in the test with Nannizzia gypsea, over 250 µg/mL; in test [1] it was 250 µg/mL (≈ 1170 µM).

Turning to `C=CCC(Nc1ccc(OC)cc1)c1ccncc1` (stereo not given), the MIC against Candida albicans, in the test on Candida tropicalis, with Saccharomyces cerevisiae, against Cryptococcus neoformans, with Aspergillus fumigatus and with Aspergillus flavus was over 250 µg/mL in each case. The MIC with Trichophyton rubrum was 125 µg/mL (≈ 491 µM); in the test with Aspergillus niger it was over 250 µg/mL; with Nannizzia gypsea, 62.5 µg/mL (≈ 246 µM); in [1], 125 µg/mL (≈ 491 µM).

Regarding `N#CC(Nc1ccccc1)c1ccoc1` (stereo not given), the MIC in the test with Candida albicans, against Candida tropicalis, against Saccharomyces cerevisiae, against Cryptococcus neoformans, with Aspergillus fumigatus and against Aspergillus flavus was over 250 µg/mL each time. Besides, the MIC against Trichophyton rubrum was 250 µg/mL (≈ 1260 µM); in the test on Aspergillus niger it was over 250 µg/mL; against Nannizzia gypsea it was over 250 µg/mL; in [1] it was 250 µg/mL (≈ 1260 µM).

As to `N#CC(Nc1ccccc1)c1ccncc1` (stereo not given), the MIC was over 250 µg/mL against Candida albicans; over 250 µg/mL in the test with Candida tropicalis; over 250 µg/mL against Saccharomyces cerevisiae; 250 µg/mL (≈ 1190 µM) in the test on Cryptococcus neoformans; 250 µg/mL (≈ 1190 µM) with Aspergillus fumigatus; 250 µg/mL (≈ 1190 µM) against Aspergillus flavus. Also, the MIC against Trichophyton rubrum came out at 125 µg/mL (≈ 597 µM); against Aspergillus niger, 250 µg/mL (≈ 1190 µM); against Nannizzia gypsea it was 250 µg/mL (≈ 1190 µM); in test [1], 125 µg/mL (≈ 597 µM).

Take `C=CCC(Nc1ccc(Br)cc1)c1ccncc1` (stereo not given): the MIC in the test with Candida albicans, in the test on Candida tropicalis, against Saccharomyces cerevisiae, against Cryptococcus neoformans, in the test with Aspergillus fumigatus and in the test with Aspergillus flavus was over 250 µg/mL in each case. The minimum inhibitory concentration (MIC) was 16 µg/mL (≈ 52.8 µM) with Trichophyton rubrum, over 250 µg/mL in the test with Aspergillus niger, 16 µg/mL (≈ 52.8 µM) with Nannizzia gypsea and 31.2 µg/mL (≈ 103 µM) in test [1].

`C=CCC(Nc1ccc(C)cc1)c1ccsc1` (stereo not given): the MIC against Candida albicans, in the test with Candida tropicalis, against Saccharomyces cerevisiae, against Cryptococcus neoformans, in the test on Aspergillus fumigatus and with Aspergillus flavus was over 250 µg/mL throughout. The minimum inhibitory concentration (MIC) (with Trichophyton rubrum; against Aspergillus niger; against Nannizzia gypsea; in [1]) was over 250 µg/mL in each case.

As for `C=CCC(Nc1ccccc1)c1ccsc1` (stereo not given), the MIC with Candida albicans was over 250 µg/mL; against Candida tropicalis, over 250 µg/mL; in the test with Saccharomyces cerevisiae, over 250 µg/mL; in the test on Cryptococcus neoformans, 250 µg/mL (≈ 1090 µM); with Aspergillus fumigatus, over 250 µg/mL; in the test with Aspergillus flavus, over 250 µg/mL. Besides, the MIC with Trichophyton rubrum was 250 µg/mL (≈ 1090 µM); against Aspergillus niger, over 250 µg/mL; in the test on Nannizzia gypsea, 125 µg/mL (≈ 545 µM); in test [1], 250 µg/mL (≈ 1090 µM).
